We go through 2 compounds from ChEMBL document CHEMBL4627355, “Chemical reactivity and uses of 1-phenyl-3-methyl-5-pyrazolone (PMP), also known as edaravone” (Bioorg Med Chem, 2020).

The structures appear in SMILES notation.

Assay [1] in a line: Antioxidant activity assessed as copper-chelating scavenging activity. The class given is functional.
Assay [2] can be described thus: Inhibition of lipid peroxidation. It counts as functional.

As to `CC1=NN(c2ccccc2)C(=O)C1` [EDARAVONE], the figures for the IC50 in assay [1] and in assay [2] were 9 µM and 4.5 µM, respectively.

As for `O=C1CC(c2ccccc2)=NN1c1ccccc1`, the concentration for half-maximal inhibition (IC50) (commonly the concentration needed to halve the response being measured) in assay [1] turned out to be 3 µM; in assay [2], 3.5 µM.
